# Tests used:
# [1] = system: IL-2 release from stimulated Jurkat cells; test: Human IL-2 Release Phenotypic Assay (Assay 3); format: cell-based; conditions: Jurkat cells (clone E6-1), 200 ng/mL PMA + 300 ng/mL ionomycin, IL-2 by ELISA
# In short: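 Jurkat E6-1 cells in RPMI1640/10% FBS were seeded at 50 000 cells/well and incubated overnight at 37° C. Half-log compound dilutions (0.5% final DMSO) were added for 30 min, then cells were stimulated with 200 ng/mL PMA + 300 ng/mL ionomycin for 48 h. IC50 came from a 4-parameter non-linear regression fit.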
# [2] = biological target: MALT1-GS-Ub (6-His-hMALT-1 residues 339-715 fused to ubiquitin) (Homo sapiens, UniProt Q9UDY8); test: biochemical;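 further: in vitro MALT1 protease assay: enzyme preincubated with compound 30 min at room temperature, then cleavage of fluorogenic Ac-LVSR-AMC substrate (100 µM) followed by fluorescence every 15 min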
# Protocol: MALT1 protease activity was assessed in vitro by measuring the cleavage of a fluorogenic tetrapeptide substrate.
# A protein (MALT1-GS-Ub) comprising 6-His-hMALT-1 (residues 339-715), fused to ubiquitin with an 8×GGS linker, was expressed in E. coli, and purified using chitin resin to remove contaminants followed by affinity chromatography purification and size-exclusion chromatography, according to standard protocols.
# Briefly, MALT1-GS-Ub (300-600 nM) was incubated with substrate (Ac-LVSR-AMC, 100 μM) in reaction buffer comprising 50 mM HEPES (pH7.0), 25 mM KCl, 0.1% (v/v) CHAPS and 1 mM TCEP.
# Test compounds dissolved in DMSO were dispensed into assay plates (384-well, black, shallow ProxiPlates). 7 μl enzyme solution was added and incubated at room temperature for 30 minutes to allow compound binding to occur. 2 μl substrate solution was then added and the fluorescence (excitation 360 nm, emission 460 nm) read every 15 minutes using a suitable plate reader. Final assay DMSO concentration was 1%. […] IC50 values were calculated using GraphPad Prism using a 4-parameter non-linear regression curve fit.
# FL hMALT1 enzyme = biological target: T1, FL hMALT1 enzyme (Homo sapiens, UniProt Q9UDY8); test: biochemical;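 further: Cell-free protease assay: enzyme preincubated with compound 30 min at room temperature, then cleavage of fluorogenic Ac-LVSR-AMC substrate (100 µM) tracked by fluorescence (ex 360/em 460 nm)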
# T1 sequence (Q9UDY8 1-824): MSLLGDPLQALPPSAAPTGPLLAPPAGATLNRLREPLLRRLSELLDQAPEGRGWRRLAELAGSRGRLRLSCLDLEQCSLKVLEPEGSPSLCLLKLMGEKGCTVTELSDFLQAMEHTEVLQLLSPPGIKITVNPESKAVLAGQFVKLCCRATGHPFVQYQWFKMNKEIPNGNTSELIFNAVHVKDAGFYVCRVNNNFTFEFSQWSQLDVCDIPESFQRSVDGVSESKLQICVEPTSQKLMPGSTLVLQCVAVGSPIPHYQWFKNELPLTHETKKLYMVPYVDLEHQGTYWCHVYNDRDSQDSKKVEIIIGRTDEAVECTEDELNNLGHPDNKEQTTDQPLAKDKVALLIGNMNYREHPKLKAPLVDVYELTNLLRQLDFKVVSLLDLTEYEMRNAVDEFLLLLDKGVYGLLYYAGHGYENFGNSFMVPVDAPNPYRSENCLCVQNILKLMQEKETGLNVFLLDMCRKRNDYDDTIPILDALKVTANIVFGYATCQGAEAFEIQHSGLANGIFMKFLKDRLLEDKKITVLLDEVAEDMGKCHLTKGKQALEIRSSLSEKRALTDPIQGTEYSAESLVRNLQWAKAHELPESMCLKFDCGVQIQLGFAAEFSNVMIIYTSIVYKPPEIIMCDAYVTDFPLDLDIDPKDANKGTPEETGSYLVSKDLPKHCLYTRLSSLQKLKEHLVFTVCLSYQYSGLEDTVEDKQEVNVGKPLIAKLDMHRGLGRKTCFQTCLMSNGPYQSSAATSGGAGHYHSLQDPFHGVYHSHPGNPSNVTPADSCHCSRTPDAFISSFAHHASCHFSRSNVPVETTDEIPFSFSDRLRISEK
# Sequence of MALT1-GS-Ub (6-His-hMALT-1 residues 339-715 fused to ubiquitin) (Q9UDY8 with tags, fused parts or gaps limits assumed): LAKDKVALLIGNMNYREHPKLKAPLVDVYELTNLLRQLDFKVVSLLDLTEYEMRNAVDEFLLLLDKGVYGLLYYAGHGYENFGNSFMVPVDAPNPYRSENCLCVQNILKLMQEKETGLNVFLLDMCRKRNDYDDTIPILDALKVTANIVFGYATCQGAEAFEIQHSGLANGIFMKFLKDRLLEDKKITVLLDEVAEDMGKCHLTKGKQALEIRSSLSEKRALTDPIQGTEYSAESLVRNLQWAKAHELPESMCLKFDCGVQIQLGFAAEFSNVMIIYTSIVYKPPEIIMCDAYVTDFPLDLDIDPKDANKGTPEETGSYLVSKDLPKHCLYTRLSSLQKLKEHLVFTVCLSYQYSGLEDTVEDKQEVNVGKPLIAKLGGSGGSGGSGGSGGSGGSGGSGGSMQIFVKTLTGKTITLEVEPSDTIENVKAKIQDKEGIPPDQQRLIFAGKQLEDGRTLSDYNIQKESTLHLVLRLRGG
Compound,IC50 ([1]; 48 hours),IC50 [2],IC50 (FL hMALT1 enzyme),"IC50 ([1]; Homo sapiens, Jurkat, 48 h)"
"CC(=O)N1CC(OC(=O)N(C)[C@@H](c2ccc(NC3Cc4ccccc4C3(C)C)cc2)C(F)(F)F)C1 (single isomer, unassigned) [Example 58]",1020 nM,190 nM,38 nM,–
"C[C@H](c1ccc(NC2Cc3ccccc3C2(C)C)cc1)N(C)C(=O)C1CCS(=O)(=O)CC1 (single isomer, unassigned) [Example 63]",–,390 nM,200 nM,2550 nM
"CNS(=O)(=O)CCCC(=O)N(C)[C@@H](c1ccc(NC2Cc3ccccc3C2(C)C)cc1)C(F)(F)F (single isomer, unassigned) [Example 64]",290 nM,150 nM,12 nM,–
"CNS(=O)(=O)CCCC(=O)N(C)[C@@H](c1ccc(NC2Cc3ccccc3C2(C)C)cc1)C(F)(F)F (single isomer, unassigned) [Example 65]",2240 nM,190 nM,45 nM,–
"CN(C(=O)CN1CC(=O)NC1=O)[C@@H](c1ccc(NC2Cc3ccccc3C2(C)C)cc1)C(F)(F)F (single isomer, unassigned) [Example 66]",590 nM,220 nM,20 nM,–
"CN(C(=O)CN1CC(=O)NC1=O)[C@@H](c1ccc(NC2Cc3ccccc3C2(C)C)cc1)C(F)(F)F (single isomer, unassigned) [Example 67]",5970 nM,450 nM,78 nM,–
"CN(C(=O)C1CN(S(C)(=O)=O)C1)[C@@H](c1ccc(NC2Cc3ccccc3C2(C)C)cc1)C(F)(F)F (single isomer, unassigned) [Example 68]",120 nM,190 nM,15 nM,–
"CN(C(=O)C1CN(S(C)(=O)=O)C1)[C@@H](c1ccc(NC2Cc3ccccc3C2(C)C)cc1)C(F)(F)F (single isomer, unassigned) [Example 69]",920 nM,280 nM,79 nM,–
"CN(C(=O)C1CCNCC1)[C@@H](c1ccc(NC2Cc3ccccc3C2)cc1)C(F)(F)F (single isomer, unassigned) [Example 70]",–,430 nM,810 nM,3500 nM
"CNC(=O)N1CC(C(=O)N(C)[C@@H](c2ccc(NC3Cc4ccccc4C3(C)C)cc2)C(F)(F)F)C1 (single isomer, unassigned) [Example 73]",370 nM,420 nM,7 nM,–
"CNC(=O)N1CC(C(=O)N(C)[C@@H](c2ccc(NC3Cc4ccccc4C3(C)C)cc2)C(F)(F)F)C1 (single isomer, unassigned) [Example 74]",180 nM,320 nM,18 nM,–
"CN1CC(C(=O)N(C)[C@@H](c2ccc(NC3Cc4ccccc4C3(C)C)cc2)C(F)(F)F)C1 (single isomer, unassigned) [Example 75]",–,250 nM,370 nM,820 nM
"CN1CC(C(=O)N(C)[C@@H](c2ccc(NC3Cc4ccccc4C3(C)C)cc2)C(F)(F)F)C1 (single isomer, unassigned) [Example 76]",500 nM,220 nM,36 nM,–
"CN(C(=O)C1CCS(=O)(=O)CC1)[C@@H](c1ccc(NC2Cc3ccccc3C2(C)C)cn1)C(F)(F)F (single isomer, unassigned) [Example 77]",920 nM,310 nM,68 nM,–
"CN(C(=O)C1CCS(=O)(=O)CC1)[C@@H](c1ccc(NC2Cc3ccccc3C2(C)C)cn1)C(F)(F)F (single isomer, unassigned) [Example 78]",156 nM,280 nM,18 nM,–
"CN([C@@H](c1ccc(NC2Cc3ccccc3C2(C)C)cc1)C(F)(F)F)S(=O)(=O)C1CC1 (single isomer, unassigned) [Example 79]",–,610 nM,730 nM,4310 nM
"CN([C@@H](c1ccc(NC2Cc3ccccc3C2(C)C)cc1)C(F)(F)F)S(=O)(=O)C1CC1 (single isomer, unassigned) [Example 80]",2240 nM,270 nM,210 nM,–
"CC1(C)c2ccccc2CC1Nc1ccc([C@H](NC(=O)C2CCS(=O)(=O)CC2)C(F)(F)F)cc1 (single isomer, unassigned) [Example 81]",–,1440 nM,800 nM,3860 nM
"CC1(C)c2ccccc2CC1Nc1ccc([C@H](NC(=O)C2CCS(=O)(=O)CC2)C(F)(F)F)cc1 (single isomer, unassigned) [Example 82]",2990 nM,470 nM,460 nM,–
"CN(C(=O)C1CNC1)C(c1ccc(NC2Cc3ccccc3C2(C)C)cn1)C(F)(F)F (single isomer, unassigned) [Example 84, N-(1-(5-((1,1-Dimethyl-2,3-dihydro-1H-inden-2-yl)amino)pyridin-2-yl)-2,2,2-trifluoroethyl)-N-methylazetidine-3-carboxamide]",640 nM,320 nM,180 nM,–
"CN(C(=O)C1CNC1)C(c1ccc(NC2Cc3ccccc3C2(C)C)cn1)C(F)(F)F (single isomer, unassigned) [Example 85, N-(1-(5-((1,1-Dimethyl-2,3-dihydro-1H-inden-2-yl)amino)pyridin-2-yl)-2,2,2-trifluoroethyl)-N-methylazetidine-3-carboxamide]",1940 nM,610 nM,620 nM,–
"CN(C(=O)C1CNC1)C(c1ccc(NC2Cc3ccccc3C2(C)C)nc1)C(F)(F)F (single isomer, unassigned) [Example 87, N-(1-(6-((1,1-Dimethyl-2,3-dihydro-1H-inden-2-yl)amino)pyridin-3-yl)-2,2,2-trifluoroethyl)-N-methylazetidine-3-carboxamide]",–,1220 nM,470 nM,1130 nM
"CN(C(=O)C1CNC1)C(c1ccc(NC2Cc3ccccc3C2(C)C)nc1)C(F)(F)F (single isomer, unassigned) [Example 88, N-(1-(6-((1,1-Dimethyl-2,3-dihydro-1H-inden-2-yl)amino)pyridin-3-yl)-2,2,2-trifluoroethyl)-N-methylazetidine-3-carboxamide]",1710 nM,650 nM,370 nM,–
"CN1CC(C(=O)N(C)C(c2ccc(NC3Cc4ccccc4C3(C)C)cn2)C(F)(F)F)C1 (single isomer, unassigned) [Example 92, N-(1-(5-((1,1-Dimethyl-2,3-dihydro-1H-inden-2-yl)amino)pyridin-2-yl)-2,2,2-trifluoroethyl)-N,1-dimethylazetidine-3-carboxamide]",–,500 nM,280 nM,870 nM
"CN1CC(C(=O)N(C)C(c2ccc(NC3Cc4ccccc4C3(C)C)nc2)C(F)(F)F)C1 (single isomer, unassigned) [Example 93, N-(1-(6-((1,1-Dimethyl-2,3-dihydro-1H-inden-2-yl)amino)pyridin-3-yl)-2,2,2-trifluoroethyl)-N,1-dimethylazetidine-3-carboxamide]",3040 nM,1000 nM,690 nM,–
"CN1CC(C(=O)N(C)C(c2ccc(NC3Cc4ccccc4C3(C)C)nc2)C(F)(F)F)C1 (single isomer, unassigned) [Example 95, N-(1-(6-((1,1-Dimethyl-2,3-dihydro-1H-inden-2-yl)amino)pyridin-3-yl)-2,2,2-trifluoroethyl)-N,1-dimethylazetidine-3-carboxamide]",1300 nM,580 nM,640 nM,–
"CN(C(=O)c1cc[nH]c(=O)c1)C(c1ccc(NC2Cc3ccccc3C2(C)C)cn1)C(F)(F)F (single isomer, unassigned) [Example 96, N-(1-(5-((1,1-Dimethyl-2,3-dihydro-1H-inden-2-yl)amino)pyridin-2-yl)-2,2,2-trifluoroethyl)-N-methyl-2-oxo-1,2-dihydropyridine-4-carboxamide]",–,140 nM,130 nM,1560 nM
"CN(C(=O)c1cc[nH]c(=O)c1)C(c1ccc(NC2Cc3ccccc3C2(C)C)cn1)C(F)(F)F (single isomer, unassigned) [Example 98, N-(1-(5-((1,1-Dimethyl-2,3-dihydro-1H-inden-2-yl)amino)pyridin-2-yl)-2,2,2-trifluoroethyl)-N-methyl-2-oxo-1,2-dihydropyridine-4-carboxamide]",880 nM,210 nM,590 nM,–
